According to article PMC8745342, “In Vitro and In Silico Kinetic Studies of Patented 1,7-diEthyl and 1,7-diMethyl Aminoalkanol Derivatives as New Inhibitors of Acetylcholinesterase” (International Journal of Molecular Sciences, 2021):

Target: T1, Acetylcholinesterase human (AChE) (Homo sapiens, UniProt P22303)
T1 construct: purchased Sigma-Aldrich (Poznań, Poland)
Experiment: AChE inhibition kinetics, Ellman's method combined with capillary electrophoresis
Type: biochemical
Conditions: for type of AChE inhibition: from Lineweaver-Burk plots, Km and Vmax; for IC50: from activity (%) versus inhibitor concentration plots; for Tilt Angle of Lineweaver-Burk line: acetylthiocholine 0.36–46.00 mM, n = 6; for amount of 4,4-dithio-bis-acid nitrobenzoic (DBAN) product in the presence of inhibitor: 0.66 mM without inhibitors
From the text: In this work, we used the combined Ellman’s method with the capillary electrophoresis method developed by us for the determination of 4,4-dithio-bis-acid nitrobenzoic (DBAN) (main enzyme reaction product) in the presence of acetylthiocholine (ACth), 5-thio-2-nitrobenzoic acid (NTB), 5,5′-dithio-bis-2-nitrobenzoic acid (DTNB), acetylcholinesterase (AChE) and inhibitors (I), (II), (III) and (IV) of acetylcholinesterase. For the development of this method, we optimized the buffer pH, separating background electrolyte (BGE) concentration, wavelength, temperature, and voltage. […] All these separation systems were tested to achieve the best separation parameters, resolution, and analysis time for all components in the reaction mixture. […] Separation was carried out at 15 kV. Each sample was added to the capillary under hydrodynamic injection.
The samples were injected under 5 psi pressure for 3 s. The experiments were performed under constant current conditions (85 μA). […] Before the assay, the capillary was conditioned with 0.1 M NaOH for 10 min at 10 psi and with H2O for 10 min at 10 psi. Then, it was electro conditioned with the running buffer for 20 min at +10 kV and pressure-conditioned with the running buffer for 10 min at 10 psi. Before each injection, the capillary was washed with 1 M NaOH for 2 min, then with H2O for 2 min, and finally with BGE for 2 min. At the end of each working day, the capillary was rinsed for 10 min with 0.1 M NaOH, 10 min with BGE, and 10 min with deionized water at 15 psi. Then, the capillary was exposed to air for 10 min at 20 psi and left empty.
Sample mixtures containing 4,4-dithio-bis-acid nitrobenzoic (DBAN) (main enzyme reaction product) in the presence of acetylthiocholine (ACth), 5-thio-2-nitrobenzoic acid (NTB), 5,5′-dithio-bis-2-nitrobenzoic acid (DTNB), acetylcholinesterase (AChE) and inhibitors (I), (II), (III) and (IV) were introduced automatically by pressure injection (with 2 psi pressure for 5 s on the sample solution). At the day’s end, vials with anode and cathode buffer were emptied and running buffer was filled again at the start of the next day before the analysis.
Acetylcholinesterase activity was determined according to the method by Ellman et al. and according to the procedure described by Rosilene R et al. but slightly modified. […] The tubes containing solutions were preincubated for 2 min at 25 °C. Then, 0.1 mL […] AChE was introduced into tubes 1–9, at an interval of 1 min. All 10 samples were incubated for 3 min at 25 °C. After incubation, the analytical samples were introduced into the capillary.
The inhibition constants (Ki) were calculated from the plotted Lineweaver–Burk curves for the four concentrations of the inhibitors (I), (II), (III) and (IV). The method was based on two steps (Figure 8).

[1] = inhibitor 0.08 mM, acetylthiocholine 0.36 mM
[2] = inhibitor 0.08 mM, acetylthiocholine 0.72 mM
[3] = inhibitor 0.08 mM, acetylthiocholine 1.44 mM
[4] = inhibitor 0.08 mM, acetylthiocholine 2.88 mM
[5] = inhibitor 0.08 mM, acetylthiocholine 5.75 mM
[6] = inhibitor 0.08 mM, acetylthiocholine 11.50 mM
[7] = inhibitor 0.08 mM, acetylthiocholine 23.00 mM
[8] = inhibitor 0.08 mM, acetylthiocholine 34.50 mM
[9] = inhibitor 0.08 mM, acetylthiocholine 46.00 mM

T1 sequence (P22303 32-614): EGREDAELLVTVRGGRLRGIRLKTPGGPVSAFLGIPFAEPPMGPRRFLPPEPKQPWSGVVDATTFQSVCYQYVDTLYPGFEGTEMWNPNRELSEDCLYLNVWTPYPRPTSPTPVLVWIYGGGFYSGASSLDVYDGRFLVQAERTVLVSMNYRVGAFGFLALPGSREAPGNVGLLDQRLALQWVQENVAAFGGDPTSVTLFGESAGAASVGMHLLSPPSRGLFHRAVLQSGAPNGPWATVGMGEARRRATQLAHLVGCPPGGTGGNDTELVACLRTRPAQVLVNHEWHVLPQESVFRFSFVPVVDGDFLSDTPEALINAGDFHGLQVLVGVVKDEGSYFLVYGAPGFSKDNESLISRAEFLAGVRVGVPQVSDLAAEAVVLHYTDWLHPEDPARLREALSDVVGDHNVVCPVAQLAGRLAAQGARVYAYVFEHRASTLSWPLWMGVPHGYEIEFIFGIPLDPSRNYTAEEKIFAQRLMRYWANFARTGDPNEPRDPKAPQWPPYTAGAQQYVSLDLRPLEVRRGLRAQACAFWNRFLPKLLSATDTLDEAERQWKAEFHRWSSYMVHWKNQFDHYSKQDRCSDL

Row | SMILES | type of AChE inhibition | IC50 | Vmax (inhibitor 0.01 mM) | Tilt Angle of Lineweaver-Burk line (inhibitor 0.01 mM) | Vmax (inhibitor 0.02 mM) | Vmax (inhibitor 0.04 mM) | Tilt Angle of Lineweaver-Burk line (inhibitor 0.04 mM) | Vmax (inhibitor 0.06 mM) | Tilt Angle of Lineweaver-Burk line (inhibitor 0.06 mM) | Vmax (inhibitor 0.08 mM) | 1/Vo, mean [1] | Peak area of product (4,4-dithio-bis-acid nitrobenzoic), mean [1] | V0 (reaction speed), mean [1] | 1/Vo, mean [2] | Peak area of product (4,4-dithio-bis-acid nitrobenzoic), mean [2] | V0 (reaction speed), mean [2] | 1/Vo, mean [3] | Peak area of product (4,4-dithio-bis-acid nitrobenzoic), mean [3] | V0 (reaction speed), mean [3] | amount of 4,4-dithio-bis-acid nitrobenzoic (DBAN) product in the presence of inhibitor [3] | further results
1 | CCC12C(=O)C(CC)(C(c3ccccc3)=C1c1ccccc1)C1C(=O)N(CC(O)CNC(C)C)C(=O)C12 (stereo not shown) [Compound (I)] | competitive | 37 ± 1 µM | 0.63 ± 0.02 mM/min | 59.52 ± 0.04 ° | 0.62 ± 0.03 mM/min | 0.64 ± 0.01 mM/min | 65.42 ± 0.05 ° | 0.65 ± 0.01 mM/min | 69.66 ± 0.05 ° | 0.65 ± 0.01 mM/min | 9.30 min/mM | 49766 | 0.11 mM/min | 5.46 min/mM | 91263 | 0.18 mM/min | 3.55 min/mM | 128810 | 0.28 mM/min | 0.52 mM | 1/Vo, mean [4]: 2.30 min/mM; Peak area of product (4,4-dithio-bis-acid nitrobenzoic), mean [4]: 171159; V0 (reaction speed), mean [4]: 0.43 mM/min; 1/Vo, mean [5]: 2.05 min/mM; Peak area of product (4,4-dithio-bis-acid nitrobenzoic), mean [5]: 207149; V0 (reaction speed), mean [5]: 0.49 mM/min; 1/Vo, mean [6]: 1.80 min/mM; Peak area of product (4,4-dithio-bis-acid nitrobenzoic), mean [6]: 231267; V0 (reaction speed), mean [6]: 0.56 mM/min; 1/Vo, mean [7]: 1.70 min/mM; Peak area of product (4,4-dithio-bis-acid nitrobenzoic), mean [7]: 247792; V0 (reaction speed), mean [7]: 0.59 mM/min; 1/Vo, mean [8]: 1.55 min/mM; Peak area of product (4,4-dithio-bis-acid nitrobenzoic), mean [8]: 250475; V0 (reaction speed), mean [8]: 0.65 mM/min; 1/Vo, mean [9]: 1.50 min/mM; Peak area of product (4,4-dithio-bis-acid nitrobenzoic), mean [9]: 251643; V0 (reaction speed), mean [9]: 0.67 mM/min; Tilt Angle of Lineweaver-Burk line (inhibitor 0.08 mM): 70.32 ± 0.03 °
2 | CCC12C(=O)C(CC)(C(c3ccccc3)=C1c1ccccc1)C1C(=O)N(CC(O)CN(C)C)C(=O)C12 (stereo not shown) [Compound (II)] | competitive | 39 ± 1 µM | 0.62 ± 0.03 mM/min | 59.46 ± 0.03 ° | 0.63 ± 0.02 mM/min | 0.65 ± 0.01 mM/min | 65.19 ± 0.06 ° | 0.65 ± 0.01 mM/min | 69.02 ± 0.05 ° | 0.65 ± 0.01 mM/min | 9.19 min/mM | 56086 | 0.11 mM/min | 5.40 min/mM | 102853 | 0.19 mM/min | 3.50 min/mM | 145167 | 0.29 mM/min | 0.58 mM | Tilt Angle of Lineweaver-Burk line (inhibitor 0.02 mM): 59.60 ± 0.08 °; 1/Vo, mean [4]: 2.30 min/mM; Peak area of product (4,4-dithio-bis-acid nitrobenzoic), mean [4]: 192894; V0 (reaction speed), mean [4]: 0.43 mM/min; 1/Vo, mean [5]: 2.05 min/mM; Peak area of product (4,4-dithio-bis-acid nitrobenzoic), mean [5]: 233453; V0 (reaction speed), mean [5]: 0.49 mM/min; 1/Vo, mean [6]: 1.80 min/mM; Peak area of product (4,4-dithio-bis-acid nitrobenzoic), mean [6]: 260635; V0 (reaction speed), mean [6]: 0.56 mM/min; 1/Vo, mean [7]: 1.70 min/mM; Peak area of product (4,4-dithio-bis-acid nitrobenzoic), mean [7]: 279258; V0 (reaction speed), mean [7]: 0.59 mM/min; 1/Vo, mean [8]: 1.55 min/mM; Peak area of product (4,4-dithio-bis-acid nitrobenzoic), mean [8]: 282281; V0 (reaction speed), mean [8]: 0.65 mM/min; 1/Vo, mean [9]: 1.50 min/mM; Peak area of product (4,4-dithio-bis-acid nitrobenzoic), mean [9]: 283597; V0 (reaction speed), mean [9]: 0.67 mM/min; Tilt Angle of Lineweaver-Burk line (inhibitor 0.08 mM): 70.02 ± 0.04 °
